Source: patent publication US4526776A, “Cationic cyanato and thiocyanato complexes useful as radiodiagnostic agents” (E. I. du Pont de Nemours & Company, priority 1983, dated 1985)

Key:
[1] = tested on: hepatobiliary transit (liver, gall bladder and gastro-intestinal tract); experiment: Visualization of hepatobiliary transit, sequential scintillation camera images after intravenous injection; format: in vivo, rabbit (male New Zealand Albino); conditions: rabbit, >1 mCi (Disofenin: at least 1 mCi)
Protocol: A lyophylized vial of HEPATOLITE™ (New England Nuclear Corporation's brand of Technetium Tc99m Disofenin) is labelled with ^99m Tc-pertechnetate in accordance with manufacturer's directions. At least 1 mCi of the labelled preparation is injected intravenously into a 2.5 Kg male New Zealand Albino rabbit. The rabbit is positioned under a Searle Pho-Gamma scintallation camera in such a way that the liver and gastro-intestinal tract are within the field of view.
Greater than 1 mCi of the ^99m Tc-Thiocyanato-DMPE complex from either Example 1 or 2 is injected into a rabbit as in Example 3.

hepatobiliary transit = conditions: commercially available agent, species not stated; cited from earlier work

Compound	sequential images of hepatobiliary transit, passage and image quality [1]	time to sequential images of hepatobiliary transit (liver, gall bladder and gastro-intestinal tract) [1]	time to obtain an image of the hepatobiliary transit (hepatobiliary transit)
CC(C)c1cccc(C(C)C)c1NC(=O)CN(CC(=O)O)CC(=O)O.[99Tc] [Disofenin, Technetium Tc99m Disofenin, reference compound]	initial liver uptake with gradual visualization of the gall bladder and gastro-intestinal tract, analogous to the diagnostically efficacious results obtained in clinical studies of normal healthy humans	about 30 minutes	≤ 30 min
^99m Tc-Thiocyanato - DMPE Complex [Example 2]	rapid passage and comparable image quality of the liver, gall bladder and gastro-intestinal tract	about 10 minutes	–
